According to patent US20030191144A1, “Compounds, compositions and methods for modulating beta-amyloid production” (Active Pass Pharmaceuticals, Inc., priority 2001, published 2003):

Key:
[1] = tested on: Aβ40 production and/or release from SM-4 cells; test: Aβ40 ELISA of culture media from SM-4 cells; assay type: cell-based; conditions: 16 hrs
Description: Cell Lines and Pharmacological Treatments. 293 EBNA cells (InVitrogen, Carlsbad, Calif.) stably transfected with Swedish mutant β-Amyloid Precursor Protein -695 (SM4 cells) were routinely maintained in DMEM supplemented with sodium pyruvate (1 mM) and 10% fetal bovine serum. Cells were seeded into poly-D-Lysine (SIGMA) coated 6-well plates at a density of 5-7×10^5 cells per well. Subsequently, the cells were rinsed in 1 ml of PBS and treated with 10-500 μM of pirinixic acid in serum-free/phenol red-free DMEM for 16 hours. Aβ Detection and Standardization. After the pharmacological treatment, the exposure media was collected and supplemented with 10% sample treatment buffer (40 mM sodium phosphate (pH 7.4), 40 mM triethanolamine, 0.1% Triton X-100, 200 mM NaCl, 2 mM EGTA, 0.1% Sodium azide), and assayed for either Aβ40 or Aβ42 by a calorimetric ELISA as per the manufacturer's protocol (Biosource International Inc, California). The cells were lysed in 0.1% Triton X-100 in PBS supplemented with 5 μM propridium iodide (Molecular Probes, Eugene, Oreg.) and incubated at 37° C. for 30 minutes prior to measuring fluorescence. Aβ40 and Aβ42 were standardized against propridium iodide fluorescence as a measure of total cell number. 293 EBNA cells (InVitrogen, Carlsbad, Calif.) stably transfected with Swedish mutant β-Amyloid Precursor Protein -695 (SM4 cells) were routinely maintained in DMEM supplemented with sodium pyruvate (1 mM) and 10% fetal bovine serum. […] The cells were lysed in 0.1% Triton X-100 in PBS supplemented with 5 μM propridium iodide (Molecular Probes, Eugene, Oreg.) and incubated at 37° C. for 30 minutes prior to measuring fluorescence. Aβ40 and Aβ42 were standardized against propridium iodide fluorescence as a measure of total cell number. […] The cells were lysed in 0.1% Triton X-100 in PBS supplemented with 5 μM propridium iodide (Molecular Probes, Eugene, Oreg.) and incubated at 37° C. for 30 minutes prior to measuring fluorescence. Aβ40 and Aβ42 were standardized against propridium iodide fluorescence as a measure of total cell number.

[2] = tested on: Aβ42 production and/or release from SM-4 cells; test: Aβ42 ELISA of culture media from SM-4 cells; assay type: cell-based; conditions: 16 hrs, p<0.001
Description: Cell Lines and Pharmacological Treatments. 293 EBNA cells (InVitrogen, Carlsbad, Calif.) stably transfected with Swedish mutant β-Amyloid Precursor Protein -695 (SM4 cells) were routinely maintained in DMEM supplemented with sodium pyruvate (1 mM) and 10% fetal bovine serum. Cells were seeded into poly-D-Lysine (SIGMA) coated 6-well plates at a density of 5-7×10^5 cells per well. Subsequently, the cells were rinsed in 1 ml of PBS and treated with 10-500 μM of pirinixic acid in serum-free/phenol red-free DMEM for 16 hours.
(§1) Aβ Detection and Standardization. After the pharmacological treatment, the exposure media was collected and supplemented with 10% sample treatment buffer (40 mM sodium phosphate (pH 7.4), 40 mM triethanolamine, 0.1% Triton X-100, 200 mM NaCl, 2 mM EGTA, 0.1% Sodium azide), and assayed for either Aβ40 or Aβ42 by a calorimetric ELISA as per the manufacturer's protocol (Biosource International Inc, California). The cells were lysed in 0.1% Triton X-100 in PBS supplemented with 5 μM propridium iodide (Molecular Probes, Eugene, Oreg.) and incubated at 37° C. for 30 minutes prior to measuring fluorescence. Aβ40 and Aβ42 were standardized against propridium iodide fluorescence as a measure of total cell number. […]
as §1, with “After” for “Aβ Detection and Standardization. After”
After the pharmacological treatment, the exposure media was collected and supplemented with 10% sample treatment buffer (40 mM sodium phosphate (pH 7.4), 40 mM triethanolamine, 0.1% Triton X-100, 200 mM NaCl, 2 mM EGTA, 0.1% Sodium azide), and assayed for either Aβ40 or Aβ42 by a colorimetric ELISA as per the manufacturer's protocol (Biosource International Inc, California). The cells were lysed in 0.1% Triton X-100 in PBS supplemented with 5 μM propridium iodide (Molecular Probes, Eugene, Oreg.) and incubated at 37° C. for 30 minutes prior to measuring fluorescence. Aβ40 and Aβ42 were standardized against propridium iodide fluorescence as a measure of total cell number.

Row | Compound | effect on Aβ40 ([1]; 50-300 μM) | inhibition of Aβ42 secretion ([2]; 300 μM) | effect on Aβ40 ([1]; 5-100 μM) | inhibition of Aβ42 secretion ([2]; 100 μM)
1 | Cc1cccc(N(C)c2cc(Cl)nc(SCC(=O)O)n2)c1C [Compound 1] | without altering Aβ40 | 66% | – | –
2 | CCN(c1cc(Cl)nc(SCC(=O)O)n1)c1cccc(C)c1C [Compound 2, {4-chloro-6-[(2,3-dimethylphenyl)ethylamino]pyrimidin-2-yl-sulfanyl}acetic Acid] | – | – | without altering Aβ40 | 80%
